Source: ChEMBL document CHEMBL5614398, “A comprehensive review of new small molecule drugs approved by the FDA in 2022: Advance and prospect” (Eur J Med Chem, 2024)

Key:
[1] = biological target: Prostaglandin E2 receptor EP2 subtype (Homo sapiens, UniProt P43116); test: Agonist activity at human EP2 receptor expressed in HEK293 cells; type: functional, cell-based
[2] = biological target: Tyrosine-protein kinase JAK2 (Homo sapiens, UniProt O60674); test: Inhibition of N-terminal human recombinant JAK2 using poly(Glu,Ala,Tyr) as substrate incubated for 2 hrs in presence of ATP by luminescence method
Sequence of Tyrosine-protein kinase JAK2 (O60674 whole entry): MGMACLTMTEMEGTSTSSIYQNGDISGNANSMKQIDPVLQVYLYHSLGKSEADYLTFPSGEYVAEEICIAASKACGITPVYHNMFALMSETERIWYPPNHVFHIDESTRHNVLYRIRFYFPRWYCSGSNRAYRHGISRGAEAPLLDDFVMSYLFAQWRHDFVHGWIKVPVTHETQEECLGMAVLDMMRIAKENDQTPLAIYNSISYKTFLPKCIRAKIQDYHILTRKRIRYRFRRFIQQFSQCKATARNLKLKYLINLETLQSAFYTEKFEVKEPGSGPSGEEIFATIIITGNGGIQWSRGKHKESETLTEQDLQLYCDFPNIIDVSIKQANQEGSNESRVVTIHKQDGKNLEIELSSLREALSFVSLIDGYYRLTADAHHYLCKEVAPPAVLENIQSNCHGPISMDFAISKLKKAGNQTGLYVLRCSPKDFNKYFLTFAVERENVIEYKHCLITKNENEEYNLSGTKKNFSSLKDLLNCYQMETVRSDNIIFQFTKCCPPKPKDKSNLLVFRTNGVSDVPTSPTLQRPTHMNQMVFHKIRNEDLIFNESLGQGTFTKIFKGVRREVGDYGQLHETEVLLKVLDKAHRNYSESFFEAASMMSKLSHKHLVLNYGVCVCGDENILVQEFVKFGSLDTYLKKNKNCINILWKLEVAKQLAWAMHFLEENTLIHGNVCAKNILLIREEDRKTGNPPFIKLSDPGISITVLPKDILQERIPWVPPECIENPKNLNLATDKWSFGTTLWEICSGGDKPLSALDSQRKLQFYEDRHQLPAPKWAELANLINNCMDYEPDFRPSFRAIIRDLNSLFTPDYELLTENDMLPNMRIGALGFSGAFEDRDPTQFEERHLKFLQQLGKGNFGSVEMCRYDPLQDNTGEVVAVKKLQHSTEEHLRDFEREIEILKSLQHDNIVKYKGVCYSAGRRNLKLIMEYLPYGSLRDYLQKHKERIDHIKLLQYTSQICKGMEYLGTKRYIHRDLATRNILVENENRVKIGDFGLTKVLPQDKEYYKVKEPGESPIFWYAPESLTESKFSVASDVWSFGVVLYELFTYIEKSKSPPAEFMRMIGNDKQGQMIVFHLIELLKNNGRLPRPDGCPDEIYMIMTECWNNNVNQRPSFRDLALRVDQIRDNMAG

[3] = biological target: T1, Receptor-type tyrosine-protein kinase FLT3 (Homo sapiens, UniProt P36888); test: Inhibition of human FLT3 (unknown origin) using poly(Glu,Tyr) as substrate incubated for 2 hrs in presence of ATP by luminescence method
T1 sequence (P36888 whole entry): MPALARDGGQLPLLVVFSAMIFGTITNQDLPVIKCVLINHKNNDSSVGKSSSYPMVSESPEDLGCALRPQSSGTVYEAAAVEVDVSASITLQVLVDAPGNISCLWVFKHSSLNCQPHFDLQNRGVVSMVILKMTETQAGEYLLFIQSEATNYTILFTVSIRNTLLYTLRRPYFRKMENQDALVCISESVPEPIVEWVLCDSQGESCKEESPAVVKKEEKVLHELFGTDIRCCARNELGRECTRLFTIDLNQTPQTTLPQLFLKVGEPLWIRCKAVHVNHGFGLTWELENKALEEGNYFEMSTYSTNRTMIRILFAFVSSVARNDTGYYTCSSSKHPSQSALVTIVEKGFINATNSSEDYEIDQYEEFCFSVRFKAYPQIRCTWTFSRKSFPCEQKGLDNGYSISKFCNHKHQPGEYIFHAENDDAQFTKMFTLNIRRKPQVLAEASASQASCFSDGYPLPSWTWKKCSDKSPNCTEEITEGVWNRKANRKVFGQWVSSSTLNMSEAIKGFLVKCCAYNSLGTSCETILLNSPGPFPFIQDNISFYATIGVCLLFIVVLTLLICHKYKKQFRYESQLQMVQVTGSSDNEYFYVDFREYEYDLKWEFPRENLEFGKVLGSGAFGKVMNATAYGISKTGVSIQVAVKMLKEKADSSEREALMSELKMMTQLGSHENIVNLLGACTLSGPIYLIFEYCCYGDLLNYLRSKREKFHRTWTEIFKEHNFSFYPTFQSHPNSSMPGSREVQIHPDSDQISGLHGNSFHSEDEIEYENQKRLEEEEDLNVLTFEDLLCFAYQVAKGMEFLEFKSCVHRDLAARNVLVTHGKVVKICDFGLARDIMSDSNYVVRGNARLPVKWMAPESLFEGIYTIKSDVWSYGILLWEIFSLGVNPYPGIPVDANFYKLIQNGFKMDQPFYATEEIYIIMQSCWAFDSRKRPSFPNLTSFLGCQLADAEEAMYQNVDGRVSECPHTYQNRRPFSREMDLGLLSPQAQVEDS

[4] = Activation of Myosin ATPase activity in bovine Cardio-myofibril; parameters: species or system Bos taurus
[5] = biological target: Lanosterol 14-alpha demethylase (Candida albicans (strain SC5314 / ATCC MYA-2876) (Yeast), UniProt P10613); test: Binding affinity to Candida albicans SC5314 CYP51 assessed as dissociation constant
Sequence of Lanosterol 14-alpha demethylase (P10613 whole entry): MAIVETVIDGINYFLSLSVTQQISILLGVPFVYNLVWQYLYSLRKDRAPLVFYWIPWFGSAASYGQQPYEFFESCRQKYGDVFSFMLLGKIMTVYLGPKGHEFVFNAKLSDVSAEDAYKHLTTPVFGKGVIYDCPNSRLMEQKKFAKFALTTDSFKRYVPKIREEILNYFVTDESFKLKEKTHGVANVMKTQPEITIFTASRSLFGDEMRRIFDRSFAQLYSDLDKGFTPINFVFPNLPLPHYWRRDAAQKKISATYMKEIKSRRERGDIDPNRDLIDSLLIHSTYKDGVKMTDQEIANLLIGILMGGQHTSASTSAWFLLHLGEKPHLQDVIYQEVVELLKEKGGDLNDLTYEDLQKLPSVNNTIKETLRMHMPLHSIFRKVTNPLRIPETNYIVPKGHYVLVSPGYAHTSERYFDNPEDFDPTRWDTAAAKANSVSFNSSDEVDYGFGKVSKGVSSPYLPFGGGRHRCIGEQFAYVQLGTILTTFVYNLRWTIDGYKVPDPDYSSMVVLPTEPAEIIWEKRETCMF

[6] = biological target: Structural capsid protein (Human immunodeficiency virus 1, UniProt Q76129); test: Inhibition of HIV-1 NL4-3 monomeric capsid protein
Sequence of Structural capsid protein (Q76129 whole entry): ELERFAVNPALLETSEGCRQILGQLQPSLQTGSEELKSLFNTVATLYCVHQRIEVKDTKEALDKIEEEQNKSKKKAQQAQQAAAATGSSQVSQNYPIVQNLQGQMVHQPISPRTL

[7] = biological target: GABA-A receptor; anion channel; test: Binding affinity to GABAA receptor (unknown origin) assessed as inhibition constant; type: protein-complex assay, Homo sapiens
[8] = Half life in human; type: ADME

Sequence of Prostaglandin E2 receptor EP2 subtype (P43116 whole entry): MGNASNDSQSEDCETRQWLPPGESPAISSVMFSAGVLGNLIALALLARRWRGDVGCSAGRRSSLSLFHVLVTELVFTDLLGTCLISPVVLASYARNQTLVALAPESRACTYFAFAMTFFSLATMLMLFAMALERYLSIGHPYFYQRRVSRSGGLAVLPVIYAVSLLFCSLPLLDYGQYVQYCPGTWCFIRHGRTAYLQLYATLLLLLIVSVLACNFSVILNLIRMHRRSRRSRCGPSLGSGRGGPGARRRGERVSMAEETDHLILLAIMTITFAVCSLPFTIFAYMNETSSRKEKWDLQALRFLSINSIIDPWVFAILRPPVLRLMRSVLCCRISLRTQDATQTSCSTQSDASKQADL

SMILES	EC50 [6] [nM]	further results
CC(C)OC(=O)CNc1cccc(CN(Cc2ccc(-n3cccn3)cc2)S(=O)(=O)c2cccnc2)n1 [OMIDENEPAG ISOPROPYL]		EC50 [1]: 1.1 nM
COc1cc(-c2ccnc(Nc3cccc(N(C)C)c3)n2)ccc1O		IC50 [2]: 23 nM; IC50 [3]: 22 nM
CC(C)n1c(=O)cc(N[C@@H](C)c2ccccc2)[nH]c1=O		EC50 [4]: 711 nM
O[C@@](Cn1cnnn1)(c1ccc(F)cc1F)C(F)(F)c1ccc(-c2ccc(OCC(F)(F)F)cc2)cn1 [OTESECONAZOLE]		Kd [5]: ≤ 39 nM
NC(=O)c1cccc(-c2cccnc2[C@H](Cc2cc(F)cc(F)c2)NC(=O)Cc2c[nH]c3ccc(O)cc23)c1	150	
Cn1nc(N)c2cccc(-c3cccnc3[C@H](Cc3cc(F)cc(F)c3)NC(=O)Cn3nc(C(F)(F)F)c4c3C(F)(F)[C@@H]3C[C@H]43)c21	19	
Cn1nc(NS(C)(=O)=O)c2c(Cl)ccc(-c3ccc(C#CC(C)(C)S(C)(=O)=O)nc3[C@H](Cc3cc(F)cc(F)c3)NC(=O)Cn3nc(C(F)(F)F)c4c3C(F)(F)[C@@H]3C[C@H]43)c21	0.2	
CC(=O)[C@H]1CC[C@H]2[C@@H]3CC[C@H]4C[C@](C)(O)CC[C@]4(C)[C@H]3CC[C@]12C [GANAXOLONE]		Ki [7]: 790 nM
Cc1[nH]c2ccccc2c1CC(=O)N[C@@H](Cc1ccccc1)C(=O)N(C)c1ccccc1		half-life [8]: 3 min
Cn1nc(NS(C)(=O)=O)c2cccc(-c3cccnc3[C@H](Cc3cc(F)cc(F)c3)NC(=O)Cn3nc(C(F)(F)F)c4c3C(F)(F)[C@@H]3C[C@H]43)c21	12	
COc1ccc(N(C)C(=O)[C@H](Cc2ccccc2)NC(=O)Cc2c[nH]c3ccc(O)cc23)cc1	52	
CC(C)(C#Cc1ccc(-c2ccc(Cl)c3c(NS(C)(=O)=O)nn(CC(F)(F)F)c23)c([C@H](Cc2cc(F)cc(F)c2)NC(=O)Cn2nc(C(F)(F)F)c3c2C(F)(F)[C@@H]2C[C@H]32)n1)S(C)(=O)=O	0.05	
NC(=O)c1cccc(-c2cccnc2[C@H](Cc2cc(F)cc(F)c2)NC(=O)Cn2nc(C(F)(F)F)c3c2C(F)(F)[C@@H]2C[C@H]32)c1	167	
